Results: patent US9611256B2, “Alkyne-, azide- and triazole-containing flavonoids as modulators for multidrug resistance in cancers” (The Hong Kong Polytechnic University, priority 2012, dated 2017)
Where two headings read alike, the source gives them in different places.

How the values were obtained:
[1] = tested on: P-gp, MRP1 and BCRP transporters; test: Selectivity for ABC transporters, determined from % of reversion (Tables 1 and 2); assay type: cell-based, human; settings: determined from % of reversion in Table 1 (>80% strongly, 79-50% moderately selective)
Outline: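 Selectivity assigned from % reversion of resistance mediated by P-gp, MRP1 and BCRP. Over 80% reversion counts as strongly selective, 79-50% as moderately selective. Compounds are classed as mono-, dual- or multi-selective.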

BCRP [2] = target: T1, BCRP (Homo sapiens, UniProt Q9UNQ0); test: Reversal of BCRP-mediated topotecan resistance in HEK293/R2 cells (cell proliferation assay); settings: triazole dimers, anti vs syn; cell line not given (Table 1)
T1 sequence (Q9UNQ0 1-655): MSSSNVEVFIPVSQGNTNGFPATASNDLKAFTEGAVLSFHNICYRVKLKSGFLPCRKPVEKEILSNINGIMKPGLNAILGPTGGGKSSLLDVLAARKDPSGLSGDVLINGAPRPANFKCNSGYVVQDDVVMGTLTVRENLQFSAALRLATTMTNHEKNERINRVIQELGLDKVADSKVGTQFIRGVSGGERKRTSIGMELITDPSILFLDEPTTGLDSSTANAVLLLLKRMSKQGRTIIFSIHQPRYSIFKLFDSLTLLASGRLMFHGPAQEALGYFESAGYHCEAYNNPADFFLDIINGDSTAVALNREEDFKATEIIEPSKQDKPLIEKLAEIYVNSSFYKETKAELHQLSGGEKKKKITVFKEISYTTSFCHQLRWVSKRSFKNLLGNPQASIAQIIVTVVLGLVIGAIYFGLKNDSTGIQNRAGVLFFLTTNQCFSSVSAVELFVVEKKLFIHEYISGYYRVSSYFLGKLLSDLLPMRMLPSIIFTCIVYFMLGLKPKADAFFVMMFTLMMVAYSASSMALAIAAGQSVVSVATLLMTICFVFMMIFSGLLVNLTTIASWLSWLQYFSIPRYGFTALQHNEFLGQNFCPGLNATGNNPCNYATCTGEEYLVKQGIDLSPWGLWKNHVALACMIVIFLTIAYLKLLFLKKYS

in vitro = settings: mouse
P-gp [3] = target: T2, P-gp (Homo sapiens, UniProt P08183); test: cell-based
MRP1 [4] = target: T3, MRP1 (Homo sapiens, UniProt P33527); test: cell-based
MRP1 [5] = target: T3, MRP1; test: Reversal of MRP1-mediated DOX resistance in 2008/MRP1 cells (cell proliferation assay); settings: for DOX resistance of 2008/MRP1 Therapeutic index: (IC50 towards L929 or Raw264.7)/(EC50 for reversing drug resistance)
BCRP [6] = target: T1, BCRP; test: Reversal of BCRP-mediated topotecan resistance in MCF7-MX100 cells (cell proliferation assay); settings: (IC50 towards L929 or Raw264.7)/(EC50 for reversing drug resistance)
P-gp [7] = target: T2, P-gp; settings: mouse (L929 or Raw264.7) and human (LCC6MDR), 5 days
MRP1 [8] = target: T3, MRP1; test: Reversal of MRP1-mediated vincristine resistance in 2008/MRP1 cells (cell proliferation assay); settings: (IC50 towards L929 or Raw264.7)/(EC50 for reversing drug resistance)
BCRP [9] = target: T1, BCRP; test: cell-based
MRP1 [10] = target: T3, MRP1; test: cell-based; remark: listed apart in the source
2008/MRP1 = test: Cell proliferation assay, 2008/MRP1

T2 sequence (P08183 whole entry): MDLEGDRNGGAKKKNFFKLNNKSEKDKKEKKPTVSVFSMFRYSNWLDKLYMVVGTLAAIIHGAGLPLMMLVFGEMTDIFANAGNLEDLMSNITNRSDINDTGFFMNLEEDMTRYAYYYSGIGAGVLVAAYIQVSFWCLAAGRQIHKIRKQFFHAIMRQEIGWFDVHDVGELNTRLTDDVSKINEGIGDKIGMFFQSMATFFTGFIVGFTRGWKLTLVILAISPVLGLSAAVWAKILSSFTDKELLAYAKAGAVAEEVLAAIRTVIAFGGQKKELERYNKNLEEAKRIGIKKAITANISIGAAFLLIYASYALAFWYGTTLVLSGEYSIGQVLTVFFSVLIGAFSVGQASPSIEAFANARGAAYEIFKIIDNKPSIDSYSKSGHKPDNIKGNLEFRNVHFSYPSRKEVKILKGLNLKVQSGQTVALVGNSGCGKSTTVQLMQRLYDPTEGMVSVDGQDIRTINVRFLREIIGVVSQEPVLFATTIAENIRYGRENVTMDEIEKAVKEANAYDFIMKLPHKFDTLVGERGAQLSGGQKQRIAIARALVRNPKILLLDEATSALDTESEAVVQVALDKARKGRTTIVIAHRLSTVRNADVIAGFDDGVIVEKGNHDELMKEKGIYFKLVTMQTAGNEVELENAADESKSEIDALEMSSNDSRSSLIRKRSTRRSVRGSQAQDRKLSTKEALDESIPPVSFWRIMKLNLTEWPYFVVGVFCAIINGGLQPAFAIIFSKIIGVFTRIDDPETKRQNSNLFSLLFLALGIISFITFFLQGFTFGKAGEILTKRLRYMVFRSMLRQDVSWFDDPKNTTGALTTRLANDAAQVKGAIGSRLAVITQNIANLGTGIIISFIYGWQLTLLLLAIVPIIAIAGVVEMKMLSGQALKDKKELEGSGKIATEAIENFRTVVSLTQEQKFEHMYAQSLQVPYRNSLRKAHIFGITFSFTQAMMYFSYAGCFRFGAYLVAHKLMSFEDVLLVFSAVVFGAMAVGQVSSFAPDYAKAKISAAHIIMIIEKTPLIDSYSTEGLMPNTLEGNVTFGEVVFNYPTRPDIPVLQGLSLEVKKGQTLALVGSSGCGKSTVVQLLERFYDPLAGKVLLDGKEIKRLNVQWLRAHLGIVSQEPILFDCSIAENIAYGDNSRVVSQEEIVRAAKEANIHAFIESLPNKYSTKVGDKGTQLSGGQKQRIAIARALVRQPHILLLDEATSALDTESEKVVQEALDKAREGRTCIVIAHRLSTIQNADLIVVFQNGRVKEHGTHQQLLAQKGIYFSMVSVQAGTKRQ
T3 sequence (P33527 whole entry): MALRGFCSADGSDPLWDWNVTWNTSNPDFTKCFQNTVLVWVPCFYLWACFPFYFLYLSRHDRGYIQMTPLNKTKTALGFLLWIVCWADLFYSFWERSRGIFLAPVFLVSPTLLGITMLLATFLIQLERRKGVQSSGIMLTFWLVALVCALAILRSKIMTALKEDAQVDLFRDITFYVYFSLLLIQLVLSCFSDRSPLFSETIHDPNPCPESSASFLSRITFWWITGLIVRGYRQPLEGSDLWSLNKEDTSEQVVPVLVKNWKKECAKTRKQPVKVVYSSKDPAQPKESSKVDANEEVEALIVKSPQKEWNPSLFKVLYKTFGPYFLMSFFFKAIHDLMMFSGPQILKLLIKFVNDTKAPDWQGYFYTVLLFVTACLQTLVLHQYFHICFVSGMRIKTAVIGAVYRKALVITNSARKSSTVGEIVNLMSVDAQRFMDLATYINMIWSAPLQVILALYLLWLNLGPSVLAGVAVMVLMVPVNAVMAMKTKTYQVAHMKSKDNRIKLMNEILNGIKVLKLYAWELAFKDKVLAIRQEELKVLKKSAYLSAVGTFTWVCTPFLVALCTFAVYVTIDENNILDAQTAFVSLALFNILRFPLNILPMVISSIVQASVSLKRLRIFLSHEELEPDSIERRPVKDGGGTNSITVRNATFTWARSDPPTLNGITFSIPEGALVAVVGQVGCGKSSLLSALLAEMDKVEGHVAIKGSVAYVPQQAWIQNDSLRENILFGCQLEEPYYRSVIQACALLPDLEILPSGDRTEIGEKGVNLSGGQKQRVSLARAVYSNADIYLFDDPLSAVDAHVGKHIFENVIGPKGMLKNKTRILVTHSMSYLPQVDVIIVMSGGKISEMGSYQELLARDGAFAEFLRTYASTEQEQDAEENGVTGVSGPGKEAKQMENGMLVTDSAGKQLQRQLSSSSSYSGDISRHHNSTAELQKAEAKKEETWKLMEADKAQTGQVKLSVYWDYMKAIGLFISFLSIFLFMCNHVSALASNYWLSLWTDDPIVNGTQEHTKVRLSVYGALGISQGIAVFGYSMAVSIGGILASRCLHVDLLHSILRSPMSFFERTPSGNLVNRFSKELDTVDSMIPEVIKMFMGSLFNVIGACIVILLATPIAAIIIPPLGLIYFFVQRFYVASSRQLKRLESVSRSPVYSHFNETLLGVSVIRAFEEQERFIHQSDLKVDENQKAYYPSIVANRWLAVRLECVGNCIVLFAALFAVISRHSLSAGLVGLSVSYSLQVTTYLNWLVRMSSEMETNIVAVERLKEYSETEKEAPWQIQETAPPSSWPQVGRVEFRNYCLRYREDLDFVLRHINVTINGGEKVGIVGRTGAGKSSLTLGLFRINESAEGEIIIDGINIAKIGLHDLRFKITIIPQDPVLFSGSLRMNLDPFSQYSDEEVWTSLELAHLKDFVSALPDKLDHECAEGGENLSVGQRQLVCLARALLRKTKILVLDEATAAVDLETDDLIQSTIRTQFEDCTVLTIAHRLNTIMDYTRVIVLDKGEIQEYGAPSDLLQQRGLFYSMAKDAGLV

Row | Selectivity for ABC transporters (P-gp, MRP1, BCRP) [1] | IC50 at 5 days (in vitro) [µM] | EC50 (P-gp [3]) [nM] | EC50 (MRP1 [4]) [nM] | SMILES | DOX resistance of 2008/MRP1 Therapeutic index (MRP1 [5]) | Vincristine resistance of 2008/MRP1 Therapeutic index (MRP1 [8]) | also measured
1 |  | > 100 | 157 |  | Cc1ccc2oc(-c3ccc(OCCCCc4cn(CCOCCOc5ccc(-c6cc(=O)c7cc(F)ccc7o6)cc5)nn4)cc3)cc(=O)c2c1 [Ac5Az7, 6-Fluoro-2-(4-(2-(2-(4-(4-(4-(6-methyl-4-oxo-4H-chromen-2-yl)phenoxy)butyl)-1H-1,2,3-triazol-1-yl)ethoxy)ethoxy)phenyl)-4H-chromen-4-one] |  |  | 
2 | Pgp- and BCRP-dual selectivity | > 100 | 330 |  | O=c1cc(-c2ccccc2)oc2cc(OCCCCc3cn(CCOCCOc4ccc(-c5oc6ccccc6c(=O)c5OCc5ccccc5)cc4)nn3)ccc12 [Ac12Az10, 3-(Benzyloxy)-2-(4-(2-(2-(4-(4-((4-oxo-2-phenyl-4H-chromen-7-yl)oxy)butyl)-1H-1,2,3-triazol-1-yl)ethoxy)ethoxy)phenyl)-4H-chromen-4-one] |  |  | Topotecan resistance of MCF7-MX100 Therapeutic index (BCRP [6]): >2924.0; Paclitaxel resistance of LCC6MDR Therapeutic index (P-gp [7]): >303.0
3 | MRP1- and BCRP-dual selectivity | > 100 |  | 169 | O=c1cc(-c2ccccc2)oc2cc(OCCCCc3cn(CCOCCOc4ccc5c(=O)cc(-c6ccccc6)oc5c4)nn3)ccc12 [Ac12Az11, 7-(2-(2-(4-(4-((4-Oxo-2-phenyl-4H-chromen-7-yl)oxy)butyl)-1H-1,2,3-triazol-1-yl)ethoxy)ethoxy)-2-phenyl-4H-chromen-4-one] | >877.2 | >591.7 | EC50 (BCRP [9]): 30 nM
4 | MRP1- and BCRP-dual selectivity | > 100 |  | 168 | O=c1cc(-c2ccccc2)oc2cc(OCCCCc3cn(CCOCCOCCOc4ccc5c(=O)cc(-c6ccccc6)oc5c4)nn3)ccc12 [Ac12Az12, 7-(2-(2-(2-(4-(4-((4-Oxo-2-phenyl-4H-chromen-7-yl)oxy)butyl)-1H-1,2,3-triazol-1-yl)ethoxy)ethoxy)ethoxy)-2-phenyl-4H-chromen-4-one] | >740.7 | >595.2 | EC50 (BCRP [9]): 34 nM
5 | Pgp- and BCRP-dual selectivity | > 100 | 340 |  | O=c1cc(-c2ccccc2)oc2cc(OCCOCc3cn(CCOCCOc4ccc(-c5oc6ccccc6c(=O)c5OCc5ccccc5)cc4)nn3)ccc12 [Ac13Az10, 3-(Benzyloxy)-2-(4-(2-(2-(4-((2-((4-oxo-2-phenyl-4H-chromen-7-yl)oxy)ethoxy)methyl)-1H-1,2,3-triazol-1-yl)ethoxy)ethoxy)phenyl)-4H-chromen-4-one] |  |  | Topotecan resistance of MCF7-MX100 Therapeutic index (BCRP [6]): >845.3; Paclitaxel resistance of LCC6MDR Therapeutic index (P-gp [7]): >294.1
6 | mono-MRP1 selectivity | > 100 |  | 550 | O=c1cc(-c2ccc(OCCOCCOCCn3cc(CN(Cc4ccccc4)Cc4cn(CCOCCOCCOc5ccc(-c6cc(=O)c7ccccc7o6)cc5)nn4)nn3)cc2)oc2ccccc12 [Ac15Az2, 2,2′-((((((((4,4′-((Benzylazanediyl)bis(methylene))bis(1H-1,2,3-triazole-4,1-diyl))bis(ethane-2,1-diyl))bis(oxy))bis(ethane-2,1-diyl))bis(oxy))bis(ethane-2,1-diyl))bis(oxy))bis(4,1-phenylene))bis(4H-chromen-4-one)] | >188.7 | >181.8 | EC50 (MRP1 [10]): 530 ± 120 nM
7 | MRP1- and BCRP-dual selectivity | > 100 |  | 535 ± 62.6 | Cc1ccc2oc(-c3ccc(OCCOCCOCCn4cc(CN(Cc5ccccc5)Cc5cn(CCOCCOCCOc6ccc(-c7cc(=O)c8cc(C)ccc8o7)cc6)nn5)nn4)cc3)cc(=O)c2c1 [Ac15Az3, 2,2′-((((((((4,4′-((Benzylazanediyl)bis(methylene))bis(1H-1,2,3-triazole-4,1-diyl))bis(ethane-2,1-diyl))bis(oxy))bis(ethane-2,1-diyl))bis(oxy))bis(ethane-2,1-diyl))bis(oxy))bis(4,1-phenylene))bis(6-methyl-4H-chromen-4-one)] | >210.5 | >186.9 | EC50 (BCRP [9]): 36 ± 4 nM
8 |  |  |  |  | Cc1ccc2oc(-c3ccc(OCCCCc4cnnn4CCOCCOc4ccc(-c5cc(=O)c6ccccc6o5)cc4)cc3)cc(=O)c2c1 [syn-Ac5Az1, 6-Methyl-2-(4-(4-(1-(2-(2-(4-(4-oxo-4H-chromen-2-yl)phenoxy)ethoxy)ethyl)-1H-1,2,3-triazol-5-yl)butoxy)phenyl)-4H-chromen-4-one] |  |  | Relative fold (RF), BCRP-modulating activity (BCRP [2]): 11.6
9 |  |  |  |  | Cc1ccc2oc(-c3ccc(OCCCCc4cnnn4CCOCCOCCOc4ccc(-c5cc(=O)c6ccccc6o5)cc4)cc3)cc(=O)c2c1 [syn-Ac5Az2, 6-Methyl-2-(4-(4-(1-(2-(2-(2-(4-(4-oxo-4H-chromen-2-yl)phenoxy)ethoxy)ethoxy)ethyl)-1H-1,2,3-triazol-5-yl)butoxy)phenyl)-4H-chromen-4-one] |  |  | MRP1 inhibitory activity of syn-isomer compared with anti-isomer (MRP1 [5]; syn vs anti triazole regioisomer): poorer MRP1 inhibitory activity than the anti-isomer Ac5Az2; Relative fold (RF), BCRP-modulating activity (BCRP [2]): 9.3
10 |  |  |  |  | CC[C@]1(O)C[C@H]2CN(CCc3c([nH]c4ccccc34)[C@@](C(=O)OC)(c3cc4c(cc3OC)N(C=O)[C@H]3[C@@](O)(C(=O)OC)[C@H](OC(C)=O)[C@]5(CC)C=CCN6CC[C@]43[C@@H]65)C2)C1 [vincristine] |  |  | IC50 (2008/MRP1; Homo sapiens, 2008/MRP1, read-out: IC50 of anticancer drug, 2008/MRP1): 123 nM; fold more resistance of 2008/MRP1 than parental 2008/P (2008/MRP1; without modulator): about 2.4 fold

Row | SMILES | Selectivity for ABC transporters (P-gp, MRP1, BCRP) [1] | IC50 at 5 days (in vitro) [µM] | EC50 (P-gp [3]) [nM] | EC50 (MRP1 [4]) [nM] | DOX resistance of 2008/MRP1 Therapeutic index (MRP1 [5]) | Vincristine resistance of 2008/MRP1 Therapeutic index (MRP1 [8]) | also measured
11 | Cc1ccc2oc(-c3ccc(OCCCCc4cn(CCOCCOCCOc5ccc(-c6cc(=O)c7ccccc7o6)cc5)nn4)cc3)cc(=O)c2c1 [Ac5Az2, 6-Methyl-2-(4-(4-(1-(2-(2-(2-(4-(4-oxo-4H-chromen-2-yl)phenoxy)ethoxy)ethoxy)ethyl)-1H-1,2,3-triazol-4-yl)butoxy)phenyl)-4H-chromen-4-one] | mono-MRP1 selectivity |  |  |  |  |  | Relative fold (RF), BCRP-modulating activity (BCRP [2]): 13.5
12 | Cc1ccc2oc(-c3ccc(OCCCCc4cn(CCOCCOc5ccc6c(=O)cc(-c7ccccc7)oc6c5)nn4)cc3)cc(=O)c2c1 [Ac5Az11, 6-Methyl-2-(4-(4-(1-(2-(2-((4-oxo-2-phenyl-4H-chromen-7-yl)oxy)ethoxy)ethyl)-1H-1,2,3-triazol-4-yl)butoxy)phenyl)-4H-chromen-4-one] |  | > 100 | 160 ± 21 | 135 ± 10 |  |  | 
13 | Cc1ccc2oc(-c3ccc(OCCCCc4cn(CCOCCOCCOc5ccc6c(=O)cc(-c7ccccc7)oc6c5)nn4)cc3)cc(=O)c2c1 [Ac5Az12, 6-Methyl-2-(4-(4-(1-(2-(2-(2-((4-oxo-2-phenyl-4H-chromen-7-yl)oxy)ethoxy)ethoxy)ethyl)-1H-1,2,3-triazol-4-yl)butoxy)phenyl)-4H-chromen-4-one] | mono-BCRP selectivity | > 100 | 141 ± 1 |  | >759.3 | >1081.1 | Topotecan resistance of MCF7-MX100 Therapeutic index (BCRP [6]): >1600.0; Paclitaxel resistance of LCC6MDR Therapeutic index (P-gp [7]): >709.2
14 | Cc1ccc2oc(-c3ccc(OCCOCCOCCn4cc(CCCCOc5ccc6c(=O)cc(-c7ccccc7)oc6c5)nn4)cc3)cc(=O)c2c1 [Ac12Az3, 6-Methyl-2-(4-(2-(2-(2-(4-(4-((4-oxo-2-phenyl-4H-chromen-7-yl)oxy)butyl)-1H-1,2,3-triazol-1-yl)ethoxy)ethoxy)ethoxy)phenyl)-4H-chromen-4-one] | multi-selectivity towards P-gp, MRP1 and BCRP transporters | > 50 | 190 |  | >333.8 | >613.5 | Paclitaxel resistance of LCC6MDR Therapeutic index (P-gp [7]): >263.2
